Data taken from patent US11091740B2, “Composition for inducing dedifferentiation into cancer stem cells comprising ribosome-activating inhibitor as active ingredient, cancer organoid culture method and anticancer drug screening platform based thereon” (priority 2016, dated 2021).

Columns and labels:
[1] = system: Cancer stem cell cultured spheroid; assay: 5-FU response of cancer stem cell cultured spheroid, PI/AnnexinV flow cytometry; format: cell-based; conditions: 5-FU 375 μM for 48 hours
Procedure: The drug effect close to human physiological activity can be confirmed by monitoring the anticancer drug response of heterogeneous cancer cells containing a plurality of cancer stem cells induced by the exposure of ribosome-inactivating stress. […] Cancer stem cell cultured spheroid were treated with 5-FU (375 μM) for 48 hours and apoptotic cells were quantified by flow cytometry using propidium iodide (PI) and AnnexinV-FITC (1:200) as markers. The number of apoptotic cells positive for both PI and AnnexinV for 5-FU was higher in the control (−) group, but the drug reactivity was better, but those in the general spheroid culture (DMSO) were decreased.

epithelial cancer cells = assay: Single versus repeated exposure to ribosome-inactivating stress, CD44/CD133 flow cytometry; format: cell-based; conditions: for cancer stem cells (CD44 and CD133) after a first temporary exposure: exposed once for 24 hours, spheroid cultured in stem cell medium, sub-cultured three times; for CD44 and CD133 positive stem cell groups in chronic exposure: exposure in each subculture, total of 3 exposures
Procedure: To reconfirm that ribosome-inactivating stress (RIS1, RIS2) is a key factor for inducing the dedifferentiation of epithelial cancer cells, the cells were exposed to ribosome-inactivating stress once for 24 hours, spheroid cultured in a stein cell culture medium for 6 days. In the experimental groups which sub-cultured in three times; and sub-cultured while exposing to the ribosome-inactivating stress on the optimum medium for cancer stem cell in each subculture (total of 3 exposures), cancer stem cells were compared quantitatively by flow cytometry with CD44 and CD133 as the marker thereof.

colon cancer cell lines = assay: Spheroid culture with ribosome-inactivating stress exposure, CD44/CD133 flow cytometry; format: cell-based; conditions: RIS-1 10 ng/mL or RIS-2 50 ng/mL pretreated for 6 hours, spheroid cultured 6 days, compared with control
Procedure: Colon cancer cell lines were purchased from ATCC (Manassas, USA), a cell line distribution company. Cells were maintained with RPMI medium supplemented with 10% (v/v) fetal bovine serum (FBS) and 5% mixed antibiotics (50 units/mL penicillin and […] streptomycin) (welgene, Daegu, South Korea) in a 5% CO2-humidified incubator at 37° C. […] First, the cultured spheroid cells were dissociated into single cells by trypsinization, washed with phosphate buffer solution, incubated with FITC-conjugated CD44 (BD pharmingen) and APC-conjugated CD133 (MACS, Miltenyi Biotec) antibodies for 15 min, and then the expression of CD44 and CD133 positive cells was analyzed by flow cytometry (Becton Dickinson FACS Canto Il BD Bioscience, San Jose, Calif., USA).

[2] = system: Colorectal cancer cell lines; assay: Cell line-based cancer organoid, CD44 (+) cells by flow cytometry; conditions: RIS-1 10 ng/mL or RIS-2 50 ng/mL pretreated for 6 hours, spheroid, organoid culture 12 days
Procedure: Colorectal cancer cell lines were pretreated with ribosome-inactivating stress, RIS-1 of 10 ng/mL or RIS-2 of 50 ng/mL for 6 hours to form spheroid. Cancer organoid is formed by using spheroid induced from cancer stem cells increased by the ribosome-inactivating stress. A cancer organoid culture technique was developed from cancer stem cells increased by ribosome-inactivating stress. 100 μl of a culture medium containing 200-400 spheroid cells of about 100 μm in size among the cultured spheroids was mixed with an equal amount of a ice-cold matrigel (BD #35424, USA) and divided as a dome in a 24-well culture dish preheated in the cell incubator. Organoid formation (changes in crypt-villus domain production, morphology and size changes, etc.) is monitored by filling the organoid culture medium (STEMCELLS) so as not to reach the cell-matrigel dome and incubating for 12 days (FIG. 7A). The final cultured organoid is tested by immunohistochemistry and flow cytometry. After washing with ice-cold PBS, the organoid was separated from the matrigel and fixed with 0.1% tritonX-100, 4% PFA and immunostained. E-cadherin, an epithelial cell factor, mucin-2, a goblet cell marker for differentiated intestinal cells and F-actin for confirming cell structure formation are examined to confirm the formation of an intestinal organoid (FIG. 7A). […]

[3] = system: CMT-93 mouse colorectal cancer cell line; assay: Allograft of RIS-2 pretreated cancer cells, epithelial mesenchyme transition markers by immunohistochemistry; format: in vivo; conditions: cells pretreated with RIS-2 50 ng/mL for 6 hours, subcutaneous in C57BL/6 mice, 5-FU i.p. on day 7, tumors excised 24 h later
Procedure: Cancer stem cells have been identified as a major cause of cancer progression, metastasis, recurrence, and resistance to anticancer drugs. In order to investigate the in vivo activity of cancer stem cells produced by the exposure to ribosome-inactivating stress, epithelial mesenchyme transition (EMT) phenomenon, which is an in vivo phenotype representing the characteristics of cancer stem cells was examined. The in vivo activity of cancer stem cells was determined by the degree of epithelial mesenchyme transition, which is verified by the decrease of E-cadherin, an epithelial cell marker and the increase of the protein expression of N-cadherin and vimentin, mesenchymal marker. For this purpose, in vivo experiment using allografts of cancer cells was performed. The CMT-93 mouse colorectal cancer cell line was cultured in DMEM (Welgene, Daegu, South Korea) supplemented with 10% (v/v) fetal bovine serum (FBS) and 5% mixed antibiotics (50 units/mL penicillin, […] streptomycin) in a 5% CO2, 37 humidified incubator at 37° C. CMT-93 cells (5×10^6) pretreated with RIS-2 (50 ng/mL) for 6 hours were resuspended with 200 μL of PBS and injected subcutaneously into a 14-week-old male C57BL/6 mice. Seven days later, […] anticancer drug 5-FU was intraperitoneally injected and tumors were excised surgically 24 h later. Solid tumors were obtained by immunohistochemistry using E-cadherin (1:200, BD Science), N-cadherin (1:200, BD Science), vimentin (1:200, Cell signaling) specific antibodies. The excised solid tumors were fixed in 4% paraformaldehyde, embedded in paraffin, and sectioned to prepare slice slide specimens. After dehydration and antibody binding, spatial expression of protein expression in tissues was investigated by 3,3-diaminobenzidine (DAB) substrate reaction and relative expression of DAB versus hematoxylin-positive cells was quantified by a tissue analysis software (Histo Quest, TissueGnotics).

| SMILES | number of apoptotic cells positive for both PI and AnnexinV ([1]; control (−) group) | number of apoptotic cells positive for both PI and AnnexinV ([1]; general spheroid culture (DMSO)) | drug reactivity (apoptotic cells) ([1]; spheroid containing cancer stem cell group induced by ribosome-inactivating stress) | cancer stem cells (CD44 and CD133) after a first temporary exposure (epithelial cancer cells) | CD44 and CD133 positive stem cell groups in chronic exposure (epithelial cancer cells) | CD44 and CD133 positive cells representing cancer stem cell group (colon cancer cell lines) | CD44 (+) cancer stem cell group in cultured cancer organoid [2] | epithelial cell marker E-cadherin in solid tumors [3] | mesenchymal cell marker N-cadherin in solid tumors [3] | mesenchymal cell marker vimentin protein in solid tumors [3] |
| --- | --- | --- | --- | --- | --- | --- | --- | --- | --- | --- |
| O=c1[nH]cc(F)c(=O)[nH]1 [5-FU, fluorouracil] | higher | decreased | further reduced |  |  |  |  |  |  |  |
| COc1ccc(C[C@H]2NC[C@H](O)[C@H]2OC(C)=O)cc1 [RIS-1, anisomycin] |  |  |  | maintained continuously | increased significantly | significantly increased | significantly increased |  |  |  |
| CC1=C[C@H]2O[C@@H]3[C@H](O)C[C@](C)([C@@]2(CO)[C@H](O)C1=O)[C@]31CO1 [RIS-2, deoxynivalenol] |  |  |  | maintained continuously | increased significantly | significantly increased | significantly increased | decreased | significantly increased | significantly increased |
